Measurements as given in patent US8101666B2, “Methods and compounds for detection of medical disorders” (Aposense Ltd., priority 2004, dated 2012).
Values belong to the compound of their own block, whether it stands above or below them.

Assays:
[1] = system: apoptotic cells in tumor, murine melanoma-derived B16-F10 cells; experiment: Targeting of DC in vivo to apoptotic cells in B16-F10 murine melanoma tumor, fluorescent microscopy; set-up: species or system mice; conditions: 2 mg/mouse i.v., 2 h; for uptake by the apoptotic or the viable tumor cells: data not shown
Procedure: Tumors, and especially aggressive malignancies such as melanoma are characterized, in addition to the abnormal tissue proliferation, also by marked apoptosis of tumor cells. The performance of DC in selective targeting of these apoptotic cells within the tumor was therefore examined. Mice (c57/black; 8 weeks old male mice) were injected subcutaneously bilaterally, in the flank, with murine melanoma-derived B16-F10 cells (ATCC CRL-6475; 10^5 cells/mice in a volume of 100 μl). Prior to injection, the cell line was maintained in culture in Dulbecco's modified Eagle's medium (DMEM), supplemented with 4 mM of L-glutamine; 100 units/ml of penicillin; 100 μg/ml of streptomycin; 12.5 units/ml of nystatin and 10% of fetal calf serum (FCS). Tumors were allowed to grow for 14 days, by which they reached a diameter of 5-7 mm.
Dansyl-cysteine (DC), or the control compounds dansyl-glycine or dansyl-serine (2 mg/mouse each in NaPpi buffer, pH. 7.40) was injected intravenously. Two hours later, mice were scarified and the tumors, as well as other organs were taken, and immediately frozen in liquid nitrogen. Frozen sections were then prepared from each of the organs. Uptake of the examined compounds by the tumors or other organs was assessed by fluorescent microscopy.

[2] = system: degenerating neuronal cells; experiment: Selective binding of NST729 in vivo to degenerating neuronal cells in a mouse model of motor neuron disease (SOD G93A); conditions: SOD G93A transgenic mice, 1.4 mg/animal i.v., 2 h
Procedure: Studies were carried out in transgenic mice for SOD with point mutation of G93A. NST729 (1.4 mg / animal in 200 μl 50% Cremophor/ trizma-base 0.1M was injected i.v. After two hours, mice were anesthetized and brain +spinal cord were removed into liquid nitrogen for further analysis. Frozen sections of 10 μm thickness were prepared. The slices were visualized by fluorescent microscopy.

[3] = system: amyloid plaques; experiment: Detection of amyloid plaques in APP Swedish TG2576 mice, fluorescent microscopy of brain sections; assay type: in vivo; conditions: i.v., 2 h
Procedure: Studies were carried out in one and a half year old APP Swedish TG2576 mice, which have a mutation of APP. BDA (which lacks a free thiol residue) and NST729 were injected i.v., two hours later, mice were anesthetized and brains were removed into liquid nitrogen for further analysis. Frozen section of 10 μm thickness each were prepared, and visualized by fluorescent microscopy.

[4] = system: brain cells undergoing apoptosis following middle cerebral artery (MCA) cauterization; experiment: Selective binding of NST729 to cells undergoing cell death following MCA occlusion, fluorescent microscopy of brain sections; assay type: in vivo; conditions: Balb/C mice
Procedure: Studies were carried out in adult male Balb/C mice, weighing 20-25 g. Ischemia was induced by unilateral cauterization of the middle cerebral artery. Briefly, mice were anesthetized, and ischemia was induced through a subtemporal approach. The craniotomy was performed at the level where the MCA crossed the lateral olfactory tract. […] All visible branches also were occluded to prevent blood supply by passing. The incision sites were clipped closed and the animal was injected with analgesics and allowed to recover.

[5] = system: cells undergoing apoptosis, induced by cerebral ischemia due to middle cerebral artery (MCA) occlusion; experiment: Selective targeting of NST739 to cells undergoing cell death following MCA occlusion, fluorescent microscopy of brain sections; assay type: in vivo; conditions: Balb/C mice
Procedure: An in vivo experiment was conducted in mice, in order to show the performance of NST739 in selective binding to cells undergoing apoptosis, induced by cerebral ischemia due to middle cerebral artery (MCA) occlusion.
Studies were carried out in adult male Balb/C mice, weighing 20-25 g. Cerebral ischemia was induced by unilateral cauterization of the middle cerebral artery. Briefly, mice were anesthetized, and ischemia was induced through a subtemporal approach. The craniotomy was performed at the level where the MCA crossed the lateral olfactory tract. […] All visible branches also where occluded to prevent blood supply by passing. The incision sites were clipped closed and the animal was injected with analgesics and allowed to recover. Twenty-two hours after the middle cerebral artery (MCA) cauterization, NST739 or the control compound BDA (1.4 mg/animal each) were injected i.v. At 24 h from the induction of the injury, and two hours after administration of NST739, mice were anesthetized, sacrificed, and brains were removed into liquid nitrogen for further analysis. […] Frozen sections were prepared. The slices were visualized by fluorescent microscopy.

Compound: CN(C)c1cccc2c(S(=O)(=O)N[C@@H](CO)C(=O)O)cccc12 [dansyl-serine, reference compound]
uptake by the apoptotic or the viable tumor cells ([1]; B16-F10 tumors): did not manifest a significant uptake

Compound: CN(C)c1cccc2c(S(=O)(=O)N[C@@H](CS)C(=O)O)cccc12 [DC, dansyl-cysteine]
binding to tumor cells undergoing cell death ([1]; c57/black mice, B16-F10 tumors): Extensive binding | staining of viable tumor cells ([1]; c57/black mice, B16-F10 tumors): remain unstained | binding to normal, viable small intestine tissue ([1]; same animal): lack of binding

intensity of binding to the plaques compared with BDA (fluorescence intensity) ([3]; APP Swedish TG2576 mice, versus control BDA): markedly higher
Compound: CN(C)c1cccc2c(S(=O)(=O)NCCS)cccc12 [NST729, n-(2-mercaptoethyl)-dansylamide]
uptake by degenerating neuronal cells and axons (motor nuclei of the pons) [2]: marked uptake | uptake by other cells in the same region and cells in other brain regions [2]: did not manifest such uptake | staining of surrounding brain cells ([3]; APP Swedish TG2576 mice): remained unstained | visualization of amyloid plaques ([3]; one and a half year old APP Swedish TG2576 mice): strongly visualized | binding to cells in the damaged area ([4]; 1.4 mg i.v. 22 h after MCA cauterization, brains removed 2 h later): extensive binding | number of apoptotic events detected compared with BDA ([4]; MCA cauterization, i.v., 2 h, versus control BDA): significantly higher | level of binding (fluorescence intensity) compared with BDA ([4]; MCA cauterization, i.v., 2 h, versus control BDA lacking the thiol group): markedly higher

Compound: CN(C)c1cccc2c(S(=O)(=O)NCC(=O)O)cccc12 [dansyl-glycine, reference compound]
uptake by the apoptotic or the viable tumor cells ([1]; B16-F10 tumors): did not manifest a significant uptake

Compound: CN(C)c1cccc2c(S(=O)(=O)N(CCS)CCCF)cccc12 [NST739, N-(3-fluoropropyl)-N-(2-thioethyl)-dansylamide]
binding to cells in the damaged area ([5]; 1.4 mg/animal i.v. 22 h after MCA cauterization, brains removed 2 h later): extensive binding | staining of cells in other brain regions ([5]; MCA cauterization, 1.4 mg/animal i.v., 2 h): remained unstained | level of binding (fluorescence) compared with BDA ([5]; MCA cauterization, 1.4 mg/animal i.v., 2 h, versus control BDA lacking the thiol group): significantly higher
